In ChEMBL document CHEMBL1150101, “Novel antiplatelet naphthalene from Rhamnus nakaharai” (J Nat Prod, 1995) one finds Activity and IC50 data, which are given here for 6 compounds.

Assay [1] is described as follows: Antiplatelet activity against washed rabbit platelet assessed as collagen-induced platelet aggregation at 300 uM administered 3 mins before collagen challenge. The class given is functional, Oryctolagus cuniculus.
Assay [2] is described as follows: Antiplatelet activity against washed rabbit platelet assessed as thrombin-induced platelet aggregation at 300 uM administered 3 mins before thrombin challenge. Format: functional, Oryctolagus cuniculus.
A short description of assay [3]: Antiplatelet activity against washed rabbit platelet assessed as PAF-induced platelet aggregation at 300 uM administered 3 mins before PAF challenge. Format: functional, Oryctolagus cuniculus.
Assay [4] in a line: Antiplatelet activity against washed rabbit platelet assessed as arachidonic acid-induced platelet aggregation at 300 uM administered 3 mins before arachidonic acid challenge. The class given is functional, Oryctolagus cuniculus.
Assay [5] is described as follows: Antiplatelet activity against washed rabbit platelet assessed as collagen-induced platelet aggregation at 50 uM administered 3 mins before collagen challenge. Format: functional, Oryctolagus cuniculus.
Assay [6] in a line: Antiplatelet activity against washed rabbit platelet assessed as PAF-induced platelet aggregation at 50 uM administered 3 mins before PAF challenge. Format: functional, Oryctolagus cuniculus.
The nature of assay [7]: Antiplatelet activity against washed rabbit platelet assessed as thrombin-induced platelet aggregation at 50 uM administered 3 mins before thrombin challenge. The class given is functional, Oryctolagus cuniculus.
Assay [8] can be described thus: Antiplatelet activity against human platelet assessed as epinephrine-induced platelet aggregation administered 3 mins before epinephrine challenge. Format: functional.
Assay [9] can be described thus: Antiplatelet activity against washed rabbit platelet assessed as arachidonic acid-induced platelet aggregation at 50 uM administered 3 mins before arachidonic acid challenge. Format: functional, Oryctolagus cuniculus.
The nature of assay [10]: Antiplatelet activity against human platelet assessed as epinephrine-induced platelet aggregation at 20 uM administered 3 mins before epinephrine challenge. The class given is functional.
A short description of assay [11]: Antiplatelet activity against washed rabbit platelet assessed as arachidonic acid-induced platelet aggregation. The class given is functional, cell-based. Conditions: Oryctolagus cuniculus.
Assay [12] can be described thus: Antiplatelet activity against human platelet assessed as epinephrine-induced platelet aggregation at 50 uM administered 3 mins before epinephrine challenge. Format: functional.
Assay [13] in a line: Antiplatelet activity against washed rabbit platelet assessed as thrombin-induced platelet aggregation at 400 uM administered 3 mins before thrombin challenge. Format: functional, Oryctolagus cuniculus.
Assay [14] is described as follows: Antiplatelet activity against human platelet assessed as epinephrine-induced platelet aggregation at 100 uM administered 3 mins before epinephrine challenge. The class given is functional.
Assay [15] is described as follows: Antiplatelet activity against washed rabbit platelet assessed as PAF-induced platelet aggregation at 400 uM administered 3 mins before PAF challenge. Format: functional, Oryctolagus cuniculus.
Assay [16] in a line: Antiplatelet activity against washed rabbit platelet assessed as arachidonic acid-induced platelet aggregation at 400 uM administered 3 mins before arachidonic acid challenge. The class given is functional, Oryctolagus cuniculus.
Assay [17] can be described thus: Antiplatelet activity against washed rabbit platelet assessed as collagen-induced platelet aggregation at 400 uM administered 3 mins before collagen challenge. Format: functional, Oryctolagus cuniculus.

For the compound `COc1c(-c2ccc(OC(C)=O)c(OC(C)=O)c2)oc2cc(OC(C)=O)cc(OC(C)=O)c2c1=O`, the Activity in [1] is on record as 0%; in assay [2], 64.9%; in [3] it was 0%; in [4], 0%.
As for `COc1cc(O)c2c(O)c3c(cc2c1)COC3=O`, the Activity was determined as 41.7% in assay [1], 88.1% in assay [2], 80% in assay [3] and 22.1% in assay [4].
`COc1c(-c2ccc(O)c(O)c2)oc2cc(O)cc(O)c2c1=O` [3-O-METHYLQUERCETIN]: the Activity stood at 5.4% in assay [1], 81.2% in assay [2], 50.1% in assay [3] and 0% in assay [4].
Turning to `CC(=O)Oc1ccccc1C(=O)O` [ASPIRIN], the Activity in assay [5] is 85.4%; in assay [6], 90.5%; in [7], 91.9%; in assay [8], 39.6%; in [9] it was 0%.
`COc1cc(OC(C)=O)cc2cc(C)c(C(C)=O)c(OC(C)=O)c12` [ISOTORACHRYSONE PERACETATE]: the Activity in [10] amounted to 83%; in assay [1] it was 16.8%; in assay [2], 82.7%; in assay [3] it was 86.7%; in assay [12] it was 13%; in assay [4], 0%. In addition, the IC50 in assay [11] was determined as 5.1 µM.
As to `COc1cc(O)cc2cc(C)c(C(C)=O)c(O)c12` [ISOTORACHRYSONE], the Activity is listed as 92.2% in assay [13]; 20.2% in assay [14]; 94.2% in assay [15]; 0% in [16]; 39.1% in assay [17].

As a reminder, the IC50 is the concentration at which inhibition is half-maximal.
